Where two headings read alike, the source gives them in different places.
Experiments:
SH-SY5Y cells [1] = assay: Effect of dexamethasone and db-cAMP on expression of DBH, NET, DLK and MCP-1; format: cell-based, human; conditions: 1 mM; data not shown
Description: Previous studies have shown that neuroblastoma cells derived from the neural crest could differentiate either towards a more neuronal phenotype in the presence of retinoic acid, or a chromaffin-like phenotype in the presence of glucocorticoids or dibutyryl-cyclic AMP (db-cAMP). […] Therefore, we tested the effect of dexamethasone and db-cAMP on the expression of our 4 candidate genes.

SHSY-5Y cells = assay: Effects of alcohols on gene expression (array hybridization intensity) in SHSY-5Y cells, Study 1; format: cell-based, human; conditions: for Co-Activ increase in hybridization / MAP4 increase in hybridization / Na/H Anti increase in hybridization / ZNFP increase in hybridization: 50 mM alcohol, early (2 hour) response, FIG. 2B; for DBH hybridization intensity over baseline / DLK hybridization intensity over baseline / GABA-β3 hybridization intensity over baseline / NPTX2 hybridization intensity over baseline / PDGFR hybridization intensity over baseline / PTK hybridization intensity over baseline: FIG. 2A
Description: Hybridization strength is given a baseline of 1 and increased intensity is expressed in as a multiple of the baseline, i.e., 2-fold, 3-fold, 4-fold etc.
Column 1 lists the presumed functional class of the gene.
Columns are similar to Table 8.

noradrenergic receptors = conditions: in vivo; cited from earlier work
[2] = system: DBH mRNA in adrenal glands and brain; conditions: versus saline
Protocol: Animal studies were conducted on female DBA/2 mice (Simonsen Laboratories, Gilroy, Calif.) weighing 20-30 g at 8 weeks of age. All animals were housed individually under a 12:12 light-dark cycle at 22° C. and given ad libitum access to food and water before and after injection procedures. […] Adrenal glands were dissected out, immediately frozen into liquid nitrogen and stored at −80° C. until needed.
Aliquot of ss cDNA were then used in comparative PCR. […] We performed duplex reaction using GAPDH as an endogenous amplification standard. PCR conditions were optimized so that the amplification of both, GAPDH and DBH cDNAs were in the exponential phase.

[3] = system: DBH protein in SH-SY5Y cells
Protocol: (§1) The relative amount of DBH protein between whole cell homogenates of control and ethanol-treated cells was determined by Western blot analysis following standard protocols using a polyclonal antibody (Calbiochem). MCP-1 production was monitored in the culture media of cells treated in the absence or presence of ethanol using the Quantikine MCP-1 immunoassay from R&D System.

[4] = system: MCP-1 release from SH-SY5Y cells; conditions: ethanol-treated cells; FIG. 4C
Protocol: as §1

SH-SY5Y cells [5] = system: SH-SY5Y cells
Description: RNA blots were probed with ^32P-labeled inserts of human DBH, NET, DLK and MCP-1 cDNAs. Probes were synthesized by RT-PCR using SH-SY5Y total RNA as template. […] Human GAPDH cDNA probe (Clonetech) was used as an internal control for total RNA normalization.

[6] = system: human neuroblastoma SH-SY5Y cells; assay: Oligonucleotide array (Affymetrix GeneChip Hu6800) gene expression profile after ethanol; conditions: 72 h
SH-SY5Y cells [7] = conditions: 150 mM ethanol, 3 days, media from last 24 h, n=3; control 0.957+/−0.49
Protocol: All HPLC apparatus was from ESA, Inc. (Chelmsford, Mass.). Following precipitation with 0.1 M perchloric acid and centrifugation over a 5000 MW cut-off centrifugal filter, culture media (10 μl aliquot) was injected onto an ESA HR-80 column (C-18, 4.6 mm×8 cm, 3 um particle size) using a Model 540 refrigerated autosampler injector and a Model 580 solvent delivery pump. […] Eluents were detected at a flow rate of 1.0 ml/min using a Model 5011 analytical cell with palladium reference electrode, a Model 5020 guard cell, and a Model 5200A Coulochem II electrochemical detector. Electrode settings were +350 mV for the guard cell, −100 mV for the pre-oxidation electrode, and +280 mV for the detection electrode. Samples were analyzed at 5 nA sensitivity and compared with a two-point monoamine standard calibration curve at 1 and 5 pg/μl using the Model 501 analysis software package.

[8] = ethanol administration; cited from earlier work
[9] = 50, 100, 150 mM ethanol, FIG. 3B

CCCC(=O)Nc1ncnc2c1ncn2[C@@H]1O[C@@H]2COP(=O)(O)O[C@H]2[C@H]1OC(=O)CCC [db-cAMP, dibutyryl-cyclic AMP]
time after treatment at which effects were significant (SH-SY5Y cells [1]): ≤ 24 h

CCCO [propanol, reference compound]
Co-Activ increase in hybridization (SHSY-5Y cells): > 6.5 fold | MAP4 increase in hybridization (SHSY-5Y cells): 4 fold | Na/H Anti increase in hybridization (SHSY-5Y cells): 6.5 fold | ZNFP increase in hybridization (SHSY-5Y cells): > 6 fold

Clc1cccc(Cl)c1N=C1NCCN1 [clonidine]
ethanol withdrawal syndrome (noradrenergic receptors): strongly reduce ethanol withdrawal syndrome

CCO [ethanol]
DBH mRNA levels in the brain ([2]; 6 or 24 h after single dose 4 g/kg i.p., data not shown): No difference in expression | DBH mRNA levels in the adrenal ([2]; 6 h after single dose 4 g/kg i.p., data not shown): No difference in expression | DBH mRNA levels in the adrenal ([2]; 24 h after single dose 4 g/kg i.p., FIG. 5): significant increase | DBH protein expression ([3]; 150 mM ethanol for 72 h, FIG. 4B): enhancement in DBH protein expression | duration of increase in DBH protein levels ([3]; continued presence of ethanol, data not shown): sustained up to 7 days treatment | MCP-1 peptide release in the culture media [4]: decrease in peptide release | DBH, DLK and NET mRNA levels (SH-SY5Y cells [5]; 3 days treatment, FIG. 4A): increase | MCP-1 transcript levels (SH-SY5Y cells [5]; 3 days treatment, FIG. 4A): decrease | time after addition at which changes in expression were detected (SH-SY5Y cells [5]; DBH, DLK, NET, MCP-1, data not shown): ≤ 24 h | E100, change in expression of ARHGDIB (L20688) ([6]; 100 mM ethanol): −0.7 | E100, change in expression of CPE (X51405) ([6]; 100 mM ethanol): 1.2 | E100, change in expression of DBH (X13255) ([6]; 100 mM ethanol): 5.4 | E100, change in expression of DLK1 (T49117) ([6]; 100 mM ethanol): 2.9 | E100, change in expression of DUSP4 (U21108) ([6]; 100 mM ethanol): 0.9 | E100, change in expression of E2-28.4 (EST) (R01227) ([6]; 100 mM ethanol): 1 | E100, change in expression of EGFR (H02836) ([6]; 100 mM ethanol): 1 | E100, change in expression of EST H08637 (NF1) ([6]; 100 mM ethanol): 0.9 | E100, change in expression of EST R47985 (Acrosin) ([6]; 100 mM ethanol): −1.3 | E100, change in expression of EST R60751 (IEP2) ([6]; 100 mM ethanol): −0.8 | E100, change in expression of EST R73461 (TCRbeta) ([6]; 100 mM ethanol): −3.7 | E100, change in expression of EST T94087 (JNK2) ([6]; 100 mM ethanol): 1 | E100, change in expression of FKHL1 (R60332) ([6]; 100 mM ethanol): −0.9 | E100, change in expression of GCH1 (U19523) ([6]; 100 mM ethanol): 1.6 | E100, change in expression of GLRX (X76648) ([6]; 100 mM ethanol): 1.4 | E100, change in expression of GPI-H (L19783) ([6]; 100 mM ethanol): −0.6 | E100, change in expression of GSTM4 (M99422) ([6]; 100 mM ethanol): 0.9 | E100, change in expression of HIRH (H14506) ([6]; 100 mM ethanol): −1 | E100, change in expression of IL7 (J04156) ([6]; 100 mM ethanol): −0.7 | E100, change in expression of KRT18 (T53412) ([6]; 100 mM ethanol): −2.3 | E100, change in expression of LUM (U21128) ([6]; 100 mM ethanol): 1.6 | E100, change in expression of MCP1 (M26683) ([6]; 100 mM ethanol): −1.9 | E100, change in expression of MGP (H52207) ([6]; 100 mM ethanol): −0.7 | E100, change in expression of NAIP (U19251) ([6]; 100 mM ethanol): 0.9 | E100, change in expression of NEF3 (Y00067) ([6]; 100 mM ethanol): 1.4 | E100, change in expression of NFIB2/3 (H91713) ([6]; 100 mM ethanol): 2.1 | E100, change in expression of NP (T47964) ([6]; 100 mM ethanol): 0.5 | E100, change in expression of NPTX2 (U29195) ([6]; 100 mM ethanol): 0.9 | E100, change in expression of NSMAF (R41765) ([6]; 100 mM ethanol): 1.1 | E100, change in expression of PGY1 (M29447) ([6]; 100 mM ethanol): 2.3 | E100, change in expression of PMSCL2 (R40490) ([6]; 100 mM ethanol): 0.7 | E100, change in expression of PRHX (X67235) ([6]; 100 mM ethanol): 1 | E100, change in expression of RAC2 (H42477) ([6]; 100 mM ethanol): −0.9 | E100, change in expression of RPL14 (R82938) ([6]; 100 mM ethanol): −0.5 | E100, change in expression of SLC6A2(NET) (M65105) ([6]; 100 mM ethanol): 2.6 | E100, change in expression of SOX9 (Z46629) ([6]; 100 mM ethanol): −1.2 | E100, change in expression of SPARC (T54767) ([6]; 100 mM ethanol): −1.3 | E100, change in expression of SSH3BP1 (R34245) ([6]; 100 mM ethanol): 0.7 | E100, change in expression of TMPO (U09086) ([6]; 100 mM ethanol): 1 | E100, change in expression of TP53 (X54156) ([6]; 100 mM ethanol): −1.1 | E100, change in expression of ZNF42 (R83364) ([6]; 100 mM ethanol): −1.9 | DBH mRNA levels, dose dependence [6, 9]: changed in a dose-dependent manner | DLK, NET and MCP-1 gene expression, dose dependence [6, 9]: showed a dose-response | expression of gene encoding α7 subunit of the neuronal acetylcholine receptor (nAChRα7) ([6]; 100 mM ethanol, FIG. 3A): downregulated | NE levels in the media (SH-SY5Y cells [7]): 23.554+/−5.218 ng/mg of protein | Co-Activ increase in hybridization (SHSY-5Y cells): 4 fold | MAP4 increase in hybridization (SHSY-5Y cells): 3 fold | Na/H Anti increase in hybridization (SHSY-5Y cells): ~6 fold | ZNFP increase in hybridization (SHSY-5Y cells): 7.5 fold | DBH hybridization intensity over baseline (SHSY-5Y cells; 50 mM ethanol): 3 fold | DLK hybridization intensity over baseline (SHSY-5Y cells; 50 mM ethanol, baseline = 1): just over the baseline | GABA-β3 hybridization intensity over baseline (SHSY-5Y cells; 50 mM ethanol, baseline = 1): just over the baseline | NPTX2 hybridization intensity over baseline (SHSY-5Y cells; 50 mM ethanol, baseline = 1): just over the baseline | PDGFR hybridization intensity over baseline (SHSY-5Y cells; 50 mM ethanol, baseline = 1): just over the baseline | PTK hybridization intensity over baseline (SHSY-5Y cells; 50 mM ethanol, baseline = 1): just over the baseline | DBH hybridization intensity over baseline (SHSY-5Y cells; 100 mM ethanol): 5 fold | DLK hybridization intensity over baseline (SHSY-5Y cells; 100 mM ethanol): 3 fold | GABA-β3 hybridization intensity over baseline (SHSY-5Y cells; 100 mM ethanol): around 2 fold | NPTX2 hybridization intensity over baseline (SHSY-5Y cells; 100 mM ethanol): around 2 fold | PDGFR hybridization intensity over baseline (SHSY-5Y cells; 100 mM ethanol): 3 fold | PTK hybridization intensity over baseline (SHSY-5Y cells; 100 mM ethanol): 3 fold | DBH hybridization intensity over baseline (SHSY-5Y cells; 150 mM ethanol): ~9 fold | DLK hybridization intensity over baseline (SHSY-5Y cells; 150 mM ethanol): ~7 fold | GABA-β3 hybridization intensity over baseline (SHSY-5Y cells; 150 mM ethanol): 2 fold | NPTX2 hybridization intensity over baseline (SHSY-5Y cells; 150 mM ethanol): 2 fold | PDGFR hybridization intensity over baseline (SHSY-5Y cells; 150 mM ethanol): 5 fold | PTK hybridization intensity over baseline (SHSY-5Y cells; 150 mM ethanol): 2 fold | plasma norepinephrine levels [8]: dose-dependent elevation

CO [methanol, reference compound]
Co-Activ increase in hybridization (SHSY-5Y cells): 1.5 fold | MAP4 increase in hybridization (SHSY-5Y cells): > 2 fold | Na/H Anti increase in hybridization (SHSY-5Y cells): 1.5 fold | ZNFP increase in hybridization (SHSY-5Y cells): 1.5 fold

— patent publication US20060024658A1, “Composition and methods for evaluating an organism's response to alcohol or stimulants” (priority 1998, published 2006)
